Measured values from patent publication US20130045952A1, “ABA Receptor Agonists for Increased Plant Stress Resistance” (Van Andel Research Institute, priority 2011, published 2013).

Legend:
Format in all cases: biochemical
His6-PYL1 / biotin-PP2C = target: T1, His6-PYL1 / biotin-PP2C (Arabidopsis thaliana, UniProt Q8VZS8); experiment: AlphaScreen luminescence proximity assay, PYL1-PP2C interaction; details: for Stimulation of the interaction between PYL1 and PP2C (binding signal): 100 nM His6-PYL1, 100 nM biotin-PP2C, 100 μM agonist, normalized against a pyrabactin control
T1 construct: PYL1 (residues 36-211), PYL2 (residues 14-188), and HAB1 (residues 172-511) were prepared as recombinant proteins in E. coli; made in house; host or cells: E. coli
T1 sequence (Q8VZS8 36-211): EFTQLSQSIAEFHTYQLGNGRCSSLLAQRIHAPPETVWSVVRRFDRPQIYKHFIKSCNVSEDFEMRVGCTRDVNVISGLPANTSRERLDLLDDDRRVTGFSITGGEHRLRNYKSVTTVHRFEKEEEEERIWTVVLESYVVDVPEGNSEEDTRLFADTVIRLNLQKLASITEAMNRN
Procedure: (§1) Mutant proteins were expressed as H6GST-fusion proteins and purified by glutathione sepharose chromatography. Protein-protein interactions were determined by luminescence proximity AlphaScreen assay. Biotinylated PP2C proteins for the luminescence proximity assay were generated by in vivo biotinylation of avitag-PP2C fusion proteins. PP2C phosphatase activity was measured by phosphate release from a SnRK2.6 phosphoprotein.
(§2) Interactions between PYR/PYL and PP2Cs were assessed by luminescence-proximity AlphaScreen technology (Perkin Elmer). Briefly, biotinylated PP2Cs were attached to streptavidin-coated donor beads, and H6-tagged PYR/PYL receptors were attached to nickel-chelated acceptor beads. The donor and acceptor beads were brought into proximity by the interactions between PYR/PYLs and PP2Cs, which were measured with and without ligands. When excited by a laser beam of 680 nm, the donor beam emits singlet oxygen that activates thioxene derivatives in the acceptor beads, which releases photons of 520-620 nm as the binding signal. The experiments were conducted with 100 nM of PP2Cs and PYR/PYL proteins in the presence of 5 ug/ml donor and acceptor beads in a buffer of 50 mM MOPS, pH7.4, 50 mM NaF, […], and 0.1 mg/ml bovine serum albumin. The results were based on an average of three experiments with standard errors typically less than 10% of the measurements.
(§3) Values were determined in different experiments and normalized against a pyrabactin control. Blank spaces mean no experimental data is available. Key (photon counts (binding signal units) in Alphascreen luminescence proximity assay): “+++ is >75,000; ++ is 25,000−75,000; + is <25,000.

His6-PYR1 / biotin-ABI1 = target: T2, His6-PYR1 / biotin-ABI1 (Arabidopsis thaliana, UniProt O49686); experiment: AlphaScreen dose response, PYR1-ABI1 interaction; details: 100 nM His6-PYR1, 100 nM biotin-PP2C, 0-100 μM agonist; from dose response curves
T2 construct: made in house; host or cells: E. coli (stated for the PP2Cs; not expressly for PYR1)
T2 sequence (O49686 1-191): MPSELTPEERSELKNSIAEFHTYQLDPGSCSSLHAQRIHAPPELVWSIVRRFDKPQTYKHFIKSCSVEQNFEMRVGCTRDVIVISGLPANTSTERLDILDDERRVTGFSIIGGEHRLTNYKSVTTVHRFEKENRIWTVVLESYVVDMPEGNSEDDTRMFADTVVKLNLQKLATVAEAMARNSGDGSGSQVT
T2 sequence (P49597 117-434 partner limits assumed): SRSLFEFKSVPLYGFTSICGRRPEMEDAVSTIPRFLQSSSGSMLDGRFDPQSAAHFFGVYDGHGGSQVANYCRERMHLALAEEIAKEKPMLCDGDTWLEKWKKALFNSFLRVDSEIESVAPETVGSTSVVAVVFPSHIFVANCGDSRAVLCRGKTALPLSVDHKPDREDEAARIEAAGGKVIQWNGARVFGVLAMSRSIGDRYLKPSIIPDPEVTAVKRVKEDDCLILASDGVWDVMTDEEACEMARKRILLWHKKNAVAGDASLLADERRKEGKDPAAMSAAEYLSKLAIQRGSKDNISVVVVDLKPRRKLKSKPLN
Procedure: as §2
(§4) The results shown in Table 5b were calculated from the dose response curves of the dependence of the interaction between 100 nM His6-PYR1 and 100 nM biotin-PP2C on the presence of 0-100 μM agonists determined by AlphaScreen luminescence proximity assay. Key (EC50 in μM): ++++=<5.0 μM; +++=5-10 μM; ++=10-20 μM; and +=>20-60 μM.

His6-PYR1 / biotin-HAB1 = target: T3, His6-PYR1 / biotin-HAB1 (Arabidopsis thaliana, UniProt O49686); experiment: AlphaScreen dose response, PYR1-HAB1 interaction; details: 100 nM His6-PYR1, 100 nM biotin-PP2C, 0-100 μM agonist; from dose response curves
T3 construct: made in house; host or cells: E. coli (stated for the PP2Cs; not expressly for PYR1)
T3 sequence (O49686 1-191): T2 sequence (O49686 1-191)
T3 sequence (Q9CAJ0 172-511 partner limits assumed): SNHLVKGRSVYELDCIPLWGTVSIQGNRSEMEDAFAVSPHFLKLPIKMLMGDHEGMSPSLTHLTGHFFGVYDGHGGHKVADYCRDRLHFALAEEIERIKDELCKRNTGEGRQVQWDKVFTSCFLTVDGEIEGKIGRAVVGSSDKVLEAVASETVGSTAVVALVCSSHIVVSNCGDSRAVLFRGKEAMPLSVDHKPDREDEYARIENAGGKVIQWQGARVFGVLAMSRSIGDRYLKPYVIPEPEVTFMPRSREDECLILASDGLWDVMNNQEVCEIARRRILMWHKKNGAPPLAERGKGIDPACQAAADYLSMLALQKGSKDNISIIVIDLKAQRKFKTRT
Procedure: as §2, §4

ABI1 = target: T4, ABI1 (Arabidopsis thaliana, UniProt O49686+P49597); experiment: PP2C phosphatase activity assay, ABI1; details: 200 nM PP2C; SnRK2.6 phosphopeptide substrate; None = 100
T4 construct: ABI1 (residues 117-434) and ABI2 (residues 101-423) were expressed as H6Sumo fusion proteins; H6Sumo (N); made in house; host or cells: E. coli BL21
T4 sequence (P49597 117-434 limits assumed): T2 sequence (P49597 117-434 partner limits assumed)
T4 sequence (O49686 1-191): T2 sequence (O49686 1-191)
Procedure: as §1
(§5) PP2Cs and PYR/PYL proteins were pre-incubated at the indicated concentrations in 50 mM imidazole, pH 7.2, 5 mM MgCl2, 0.1% β-mercaptoethanol and 0.5 mg/ml BSA for 30 min at room temperature. Reactions were started by addition of 100 μM of a phosphopeptide corresponding to amino acids 170-180 of SnRK2.6 (HSQPK^pSTVGTP). This peptide is phosphorylated at a single residue corresponding to Ser175 in SnRK2.6, whose phosphorylation is required for SnRK2.6 kinase activity^32. Phosphate release from ^pS175 from the phosphopeptide was determined by colorimetric assay (BioVision).

His6-PYR1 / biotin-PP2C = target: T5, His6-PYR1 / biotin-PP2C (Arabidopsis thaliana, UniProt O49686); experiment: AlphaScreen luminescence proximity assay, PYR1-PP2C interaction; details: for Stimulation of the interaction between PYR1 and PP2C (binding signal): 100 nM His6-PYR1, 100 nM biotin-PP2C, 100 μM agonist, normalized against a pyrabactin control
T5 construct: made in house; host or cells: E. coli is stated for PYL1, PYL2 and the PP2Cs, not expressly for PYR1
T5 sequence (O49686 1-191): T2 sequence (O49686 1-191)
Procedure: as §1, §2, §3

HAB1 = target: T6, HAB1 (Arabidopsis thaliana, UniProt O49686+Q9CAJ0); experiment: PP2C phosphatase activity assay, HAB1; details: 200 nM PP2C; SnRK2.6 phosphopeptide substrate; None = 100
T6 construct: HAB1 (residues 172-511) were prepared as recombinant proteins in E. coli; H6GST or H6Sumo; made in house; host or cells: E. coli
T6 sequence (Q9CAJ0 172-511 limits assumed): T3 sequence (Q9CAJ0 172-511 partner limits assumed)
T6 sequence (O49686 1-191): T2 sequence (O49686 1-191)
Procedure: as §1, §5

[1] = purified proteins in vitro, HAB1, ABI1, ABI2

| SMILES | Stimulation of the interaction between PYL1 and PP2C (binding signal) (His6-PYL1 / biotin-PP2C) | EC50 (His6-PYR1 / biotin-ABI1) | EC50 (His6-PYR1 / biotin-HAB1) | % Phosphatase Activity ABI1 (ABI1) | Stimulation of the interaction between PYR1 and PP2C (binding signal) (His6-PYR1 / biotin-PP2C) | % Phosphatase Activity HAB1 (HAB1) | Promotion of PYL1 interaction with the three PP2Cs (His6-PYL1 / biotin-PP2C; [1]) | Agonist activity in wildtype PYL1 (His6-PYL1 / biotin-PP2C; wildtype PYL1) | Promotion of PYR1 interaction with the three PP2Cs (His6-PYR1 / biotin-PP2C; [1]) |
| --- | --- | --- | --- | --- | --- | --- | --- | --- | --- |
| CCN1C(=O)c2cccc3c(S(=O)(=O)NC[C@@H]4CCCO4)ccc1c23 [Compound 11] | + (+ is <25,000) | 10 to 20 µM | 5 to 10 µM | 4.7 ± 1.0% | +++ (+++ is >75,000) | 8.8 ± 0.3% |  |  |  |
| O=S(=O)(NCc1ccccn1)c1ccc(Br)c2ccccc12 [Pyrabactin, pyrabactin] |  | 5 to 10 µM | < 5 µM | 2.8 ± 0.2% |  | 12.6 ± 0.3% | promoted interaction | very weak | strongly promoted |
| O=C1Nc2ccc(S(=O)(=O)NCc3ccccn3)c3cccc1c23 [Compound 1] | + (+ is <25,000) | 10 to 20 µM | 20 to 60 µM | 3.3 ± 1.0% | + (+ is <25,000) | 16.6 ± 2.0% |  |  |  |
| CCOC(=O)CNS(=O)(=O)c1ccc2c3c(cccc13)C(=O)N2CC [Compound 2] | + (+ is <25,000) | 10 to 20 µM | 5 to 10 µM | 4.3 ± 0.8% | +++ (+++ is >75,000) | 6.1 ± 1.9% |  |  |  |
